From patent US20110008279A1, “Methods and Compositions Relating to Adhesins as Adjuvants” (priority 2005, published 2011)

Legend:
naïve T cells = experiment: Intracellular detection of IFN-γ and IL-4 in T cells by flow cytometry; format: cell-based, human; conditions: T cells activated by IFN-γ primed, matured mo-DCs
Procedure: Mo-DC pre-treated in various conditions were co-cultured with naïve T cells for five days and re-stimulated with ionomycin 1 μg/ml and PMA 10 ng/ml for 2.5 h and for 3 h in the presence of a Brefeldin-A, (10 μg/ml final concentration). Cells were then washed and fixed for 15 min (Fix and Penn cell permeabilization kit, Caltag). After one washing step cells were permeabilised and stained with FITC conjugated anti interferon-γ mAB (BD-Pharmigen) and PE conjugated anti IL-4 mAb (Caltag) or with irrelevant isotype control for 30 min. Then cells were washed again, resuspended and analysed by flow cytoflorimetry.

[1] = tested on: allogenic CD4+ naïve T lymphocyte; experiment: Allogenic mixed leukocyte reaction, naive CD4+ T-cell proliferation; format: cell-based, human
Procedure: Allogenic mixed leukocyte reaction was performed with irradiated (3000 rads from a ^137Cs source) mo-DC and purified allogenic T cells. […], LPS 1 μg/ml (positive control) and non stimulated DC (negative control) pretreated or not with IFN-γ 1000 U/ml were washed and cultured with allogenic CD4+ naïve T lymphocyte (0.3×10^5 cells/well) for 5 days at 37° C. in a humidified CO2 incubator in round-bottom 96-well microtiter plates (Costar). Proliferation was measured by pulse-labelling triplicate wells for 6 h with 1 μCi of 3H-Thymidine/well (Amersham Biosciences). Negative controls included T naive cells incubated or DC incubated alone.
^3H-Thymidine incorporation was measured by harvesting cells onto glass fiber filter paper (Pall Corporation, Life Sciences) using a 96-well semiautomatic cell harvester (Multiwash 2000, Dynatech) and counting by liquid scintillation in a […] (Wallac 1409 liquid scintillation counter).

mo-DCs [2] = experiment: Morphology of mo-DCs (light microscopy); format: cell-based, human; conditions: IFN-γ priming 18 hours, NadAΔ351-405 1.5 μM, 3 hours
human macrophages [3] = experiment: Surface markers of human macrophages; format: cell-based
From the text: The functional effect of NadA on human monocytes and macrophages was investigated using a soluble recombinant mutant lacking the membrane anchor and a full length protein expressed in E. coli OMV or N meningitidis OMV. To better define the immuno-modulatory activity of NadA, the cells were stimulated with protein plus or minus both microbial stimulus (LPS) and immunological stimulus (IFNγ).
The effect of NadAΔ351-405 on monocyte and macrophage cells was further investigated by measuring the expression of the antigen presentation marker MHC-II, the co-stimulatory molecules CD80 and CD86 and the cell adhesion molecule ICAM-1.

human monocytes [4] = experiment: Long-term differentiation of monocytes, surface markers; format: cell-based; conditions: culture up to 7 days
Procedure: (§1) In order to evaluate the possible long-term, differentiation effect of NadA, adherent monocytes were treated with medium alone, NadAΔ351-405 or E. coli LPS and cells were cultured for seven days. At day 4 the agonists were added again to ensure a constant stimulation. Cell morphology was monitored by light microscopy after 1, 2, 3 and 7 days. […] NadAΔ351-405 thus induces both alteration cell morphology and distribution, this is a good indicator of monocyte activation and differentiation.
The long-term, differentiation effect of NadAΔ351-405 on monocytes was further investigated by measuring the expression of the antigen presentation marker MHC-II, co-stimulatory molecules CD80 and CD86 and cell-specific molecules: CD14 (monocyte), CD16 (macrophage) and CD1a (Dendritic cell).

human monocytes [5] = experiment: Long-term morphology of monocytes (light microscopy); format: cell-based
Procedure: as §1

human macrophages [6] = experiment: NadA binding to human macrophages; conditions: 37° C.
Procedure: The graphs plot the mean fluorescence intensities (MFI) ±SD measured in human macrophages that have been incubated with NadAΔ351-405-Alexa, at different concentrations (A), or with 100 nM NadAΔ351-405-Alexa in presence of increasing concentrations of unlabelled protein (B), for 3 hours at 37° C. or 0° C. The reported data are the average of three independent experiments repeated in triplicate.
NadA binding to monocyte-derived macrophages was also investigated. A dose-dependent association of NadA to macrophages was confirmed by MFI analysis and competition by non-labelled ligand was used to ascertain whether NadA binding was specific.

mo-DCs [7] = experiment: Expression of maturation markers on mo-DCs (flow cytometry); format: cell-based, human; conditions: for CD86 expression on co-stimulation with R-848: R-848 1 μM, NadA 1.5 μM
Procedure: Reagents used were tested for low endotoxin contamination using the Limulus amoebocyte assay (Sigma). Dendritic cells were generated from human peripheral blood mononuclear cells (PBMC) as described previously. In brief, PBMC were isolated from buffy coats of healthy donors by Ficoll-Paque Plus density gradient centrifugation (Amersham Pharmacia Biotech AB). Separate monocyte and T-cell fractions were obtained from PBMCs by Percoll density gradient centrifugation (Amersham Pharmacia Biotech AB). […] DC were obtained by 6-d culture adherent monocytes in medium with 20 ng/ml IL-4 (5×10^6 units/mg, Peprotech) and 50 ng/ml GM-CSF (1×10^7 units/mg, Peprotech). Cytokines were added again on day 4 in RPMI-1640 medium supplemented with 10% FBS. […] After 24 h cells were harvested and analysed. Culture supernatants were collected frozen in liquid nitrogen and conserved at −80° C. for cytokine analysis.
After differentiation, DC were routinely stained with phycoerytrin conjugated monoclonal antibodies to human CD14, CD1a, CD83, CD86 (B7.2), CD80 (B7.1), MHC II (HLA-DR), purchased from BD-Pharminghen and Caltag. In parallel, cells were stained with the isotype matched control mAb. Cells were immunostained with the proper dilution of PE-conjugated anti human monoclonal antibodies at 4° C. for 30 min in 100 μl of phosphate-buffered saline pH 7.2 (PBS, GIBCO BRL) containing 1% FBS and 0.1% NaN3 (FACS buffer). After washing, propidium iodide was added to exclude dead cells and cell fluorescence intensities of the gated populations were measured with a EPICS XL-MCL (Coulter) flow cytometer and analyzed with EXPO 32ADC XL 3COLOR or WinMDI 2.8. software. Data were collected on 10000-20000 events.

## NadAΔ351-405
naïve T cells
  IFN-γ+ T cells, % of total T cell population: 13-31%
  IFN-γ+/IL-4+ T cells, % of total T cell population: 4-12%
  IL-4+ T cells, % of total T cell population: 3-18%
[1]; absence of IFN-γ priming, 1 μM
  T lymphocyte activation by mo-DCs: not able to induce a mo-DC phenotype competent for T lymphocyte activation
[1]; mo-DCs primed with INFγ then stimulated with NadA
  T cell proliferation relative to LPS-matured mo-DCs: 30-40%
mo-DCs [2]
  cell morphology: some cells became elongated and tended to cluster
Human macrophages [3]
  ICAM-1 expression: increased
Human macrophages [3]; IFN-γ co-stimulation
  HLA-DR expression: greatly enhanced
Human macrophages [3]; co-stimulation with IFN-γ
  CD80 expression: increased
Human macrophages [3]; co-stimulation with LPS
  CD86 expression: Partial stimulation
Human monocytes [4]
  CD1a expression: not increased
  CD14 expression: steadily increased on days two and three
  CD16 expression: increased more intensely than in the control cells in the first three days
  CD80 expression: not over-expressed
  CD86 expression: increased more intensely than in the control cells in the first three days
  HLA-DR surface expression: reached a maximal expression level on day three
Human monocytes [5]; 3-day incubation
  cell morphology: became elongated and tended to cluster
Human monocytes [5]; 7 culture days
  number of surviving cells with respect to the control: greatly increased
Human macrophages [6]
  decrease of the signal associated to macrophages by non-labelled ligand: −50%
mo-DCs [7]; no IFN-γ priming
  CD86 expression on co-stimulation with R-848: addition of the two effects
  CD86 expression, dose response: not different from control cells below 1 μM NadA
  plasma membrane HLA-DR expression: partially increased
mo-DCs [7]; after IFN-γ priming, flagellin 10 μg/ml
  CD86 expression on co-stimulation with R-848: maximal CD86 expression
mo-DCs [7]; after IFN-γ priming
  CD83 level relative to that induced by LPS: ~50%
  CD86 expression, dose response: effectively induced CD86 also in the submicromolar concentration range
  CD86 level: reached the same value observed in LPS-treated cells
mo-DCs [7]; at higher NadA concentrations
  IFN-γ potentiation of NadA effect on CD86: 2-3 fold
mo-DCs [7]; no IFN-γ priming, 24 hour exposure, 1 μM / 1.5 μM
  CD83 expression: not increased
